From patent US6737383B1, “Herbicidal oxadiazolidines” (priority 1999, dated 2004)

Columns and labels:
[1] = system: wheat; experiment: Test B pre/postemergence wheat; type: in vivo, Triticum aestivum
Summary of the method: (§1)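 Test chemicals in a non-phytotoxic solvent mixture with surfactant were sprayed preemergence onto planted seeds and postemergence onto plants 2 to 18 cm tall (1- to 4-leaf stage). After twelve to sixteen days in a greenhouse, injury was visually rated against untreated controls from 0 (no effect) to 10 (complete control).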

[2] = system: wild oat; experiment: Test B pre/postemergence wild oat; type: in vivo, Avena fatua
Summary of the method: as §1

[3] = system: velvetleaf; experiment: Test B pre/postemergence velvetleaf; type: in vivo, Abutilon theophrasti
Summary of the method: as §1

[4] = system: surinam grass; experiment: Test B pre/postemergence surinam grass; type: in vivo, Brachiaria decumbens
Summary of the method: as §1

[5] = system: sugar beet; experiment: Test B pre/postemergence sugar beet; type: in vivo, Beta vulgaris
Summary of the method: as §1

[6] = system: corn; experiment: Test B pre/postemergence corn; type: in vivo, Zea mays
Summary of the method: as §1

[7] = system: purple nutsedge; experiment: Test B pre/postemergence purple nutsedge; type: in vivo, Cyperus rotundus
Summary of the method: as §1

[8] = system: pigweed; experiment: Test B pre/postemergence pigweed; type: in vivo, Amaranthus retroflexus
Summary of the method: as §1

[9] = system: cocklebur; experiment: Test B pre/postemergence cocklebur; type: in vivo, Xanthium strumarium
Summary of the method: as §1

[10] = system: rape; experiment: Test B pre/postemergence rape; type: in vivo, Brassica napus
Summary of the method: as §1

[11] = system: bedstraw; experiment: Test B pre/postemergence bedstraw; type: in vivo, Galium aparine
Summary of the method: as §1

[12] = system: soybean; experiment: Test B pre/postemergence soybean; type: in vivo, Glycine max
Summary of the method: as §1

[13] = system: giant foxtail; experiment: Test B pre/postemergence giant foxtail; type: in vivo, Setaria faberii
Summary of the method: as §1

[14] = system: morningglory; experiment: Test B pre/postemergence morningglory; type: in vivo, Ipomoea hederacea
Summary of the method: as §1

[15] = system: blackgrass; experiment: Test B pre/postemergence blackgrass; type: in vivo, Alopecurus myosuroides
Summary of the method: as §1

[16] = system: crabgrass; experiment: Test B pre/postemergence crabgrass; type: in vivo, Digitaria sanguinalis
Summary of the method: as §1

[17] = Postemergence, Rate 62 g/ha, scale of 0 to 10, 0 is no effect, 10 is complete control
[18] = Postemergence, Rate 125 g/ha, scale 0 to 10, 0 is no effect, 10 is complete control
[19] = Postemergence, Rate 500 g/ha, scale 0 to 10, 0 is no effect, 10 is complete control
[20] = Preemergence, Rate 62 g/ha, scale of 0 to 10 where 0 is no effect and 10 is complete control
[21] = Preemergence, Rate 125 g/ha, scale 0 to 10, 0 is no effect, 10 is complete control
[22] = Rate 250 g/ha, Postemergence, scale of 0 to 10 where 0 is no effect and 10 is complete control
[23] = Preemergence, Rate 500 g/ha, scale of 0 to 10 where 0 is no effect and 10 is complete control

CC(C)N(C(=O)n1oc(=O)n(CCCC(F)(F)F)c1=O)c1ccc(F)cc1F [Compound 526]
6: Plant response rating, B. signalgrass [4, 19] | Sugarbeets plant response rating [5, 21] | Morningglory plant response rating [14, 17] | Morningglory plant response rating [14, 18] | Plant response rating, Morningglory [14, 22] | Blackgrass plant response rating [15, 18] | Crabgrass plant response rating [16, 17]
3: Velvetleaf plant response rating [3, 23] | Soybean plant response rating [12, 18] | Plant response rating, Soybean [12, 19] | Plant response rating, Soybean [12, 22] | Giant foxtail plant response rating [13, 17] | Giant foxtail plant response rating [13, 18] | Blackgrass plant response rating [15, 17]
8: Wheat plant response rating (0 to 10 scale) ([1]; Preemergence, Rate 250 g/ha) | Plant response rating, Velvetleaf [3, 19] | Plant response rating, B. signalgrass [4, 20] | Sugarbeets plant response rating (0 to 10 scale) ([5]; Preemergence, Rate 250 g/ha) | Sugarbeets plant response rating [5, 23] | Plant response rating, Giant foxtail [13, 19]
10: Giant foxtail plant response rating [13, 21] | Giant foxtail plant response rating (0 to 10 scale) ([13]; Preemergence, Rate 250 g/ha) | Giant foxtail plant response rating [13, 23] | Blackgrass plant response rating (0 to 10 scale) ([15]; Preemergence, Rate 250 g/ha) | Plant response rating, Crabgrass [16, 19] | Crabgrass plant response rating [16, 21] | Crabgrass plant response rating (0 to 10 scale) ([16]; Preemergence, Rate 250 g/ha) | Crabgrass plant response rating [16, 23]
0: Wheat plant response rating [1, 17] | Wheat plant response rating [1, 18] | Plant response rating, Wheat [1, 19] | Plant response rating, Wheat [1, 20] | Wheat plant response rating [1, 21] | Plant response rating, Wheat [1, 22] | Wild oats plant response rating [2, 17] | Wild oats plant response rating [2, 18] | Plant response rating, Wild oats [2, 19] | Plant response rating, Wild oats [2, 22] | Plant response rating, Velvetleaf [3, 20] | B. signalgrass plant response rating [4, 17] | Sugarbeets plant response rating [5, 17] | Sugarbeets plant response rating [5, 18] | Plant response rating, Sugarbeets [5, 19] | Plant response rating, Sugarbeets [5, 22] | Corn plant response rating [6, 17] | Plant response rating, Corn [6, 20] | Corn plant response rating [6, 21] | Corn plant response rating (0 to 10 scale) ([6]; Preemergence, Rate 250 g/ha) | Nutsedge plant response rating [7, 17] | Nutsedge plant response rating [7, 18] | Plant response rating, Nutsedge [7, 20] | Nutsedge plant response rating [7, 21] | Nutsedge plant response rating (0 to 10 scale) ([7]; Preemergence, Rate 250 g/ha) | Nutsedge plant response rating [7, 23] | Plant response rating, Nutsedge [7, 22] | Redroot pigweed plant response rating [8, 17] | Redroot pigweed plant response rating [8, 18] | Cocklebur plant response rating [9, 17] | Cocklebur plant response rating [9, 18] | Plant response rating, Cocklebur [9, 20] | Cocklebur plant response rating [9, 21] | Cocklebur plant response rating (0 to 10 scale) ([9]; Preemergence, Rate 250 g/ha) | Cocklebur plant response rating [9, 23] | Plant response rating, Cocklebur [9, 22] | Rape plant response rating [10, 17] | Plant response rating, Bedstraw [11, 20] | Bedstraw plant response rating [11, 21] | Plant response rating, Soybean [12, 20] | Soybean plant response rating [12, 21] | Soybean plant response rating (0 to 10 scale) ([12]; Preemergence, Rate 250 g/ha) | Soybean plant response rating [12, 23] | Plant response rating, Morningglory [14, 20] | Morningglory plant response rating [14, 21] | Morningglory plant response rating (0 to 10 scale) ([14]; Preemergence, Rate 250 g/ha)
2: Velvetleaf plant response rating [3, 21] | Velvetleaf plant response rating (0 to 10 scale) ([3]; Preemergence, Rate 250 g/ha) | B. signalgrass plant response rating [4, 18] | Corn plant response rating [6, 18] | Plant response rating, Corn [6, 19] | Corn plant response rating [6, 23] | Plant response rating, Corn [6, 22] | Plant response rating, Nutsedge [7, 19] | Plant response rating, Redroot pigweed [8, 22] | Plant response rating, Cocklebur [9, 19] | Soybean plant response rating [12, 17] | Morningglory plant response rating [14, 23]
4: Velvetleaf plant response rating [3, 17] | Velvetleaf plant response rating [3, 18] | Plant response rating, B. signalgrass [4, 22] | Plant response rating, Sugarbeets [5, 20] | Plant response rating, Redroot pigweed [8, 19] | Plant response rating, Redroot pigweed [8, 20] | Redroot pigweed plant response rating [8, 21] | Redroot pigweed plant response rating (0 to 10 scale) ([8]; Preemergence, Rate 250 g/ha) | Rape plant response rating [10, 18] | Plant response rating, Rape [10, 19] | Plant response rating, Rape [10, 20] | Rape plant response rating [10, 21]
9: Wild oats plant response rating [2, 21] | Wild oats plant response rating (0 to 10 scale) ([2]; Preemergence, Rate 250 g/ha) | B. signalgrass plant response rating [4, 21] | B. signalgrass plant response rating (0 to 10 scale, 0 is no effect, 10 is complete control) ([4]; Preemergence, Rate 250 g/ha) | Rape plant response rating (0 to 10 scale) ([10]; Preemergence, Rate 250 g/ha) | Plant response rating, Bedstraw [11, 19] | Plant response rating, Giant foxtail [13, 20] | Blackgrass plant response rating [15, 21] | Plant response rating, Blackgrass [15, 22] | Crabgrass plant response rating [16, 18] | Plant response rating, Crabgrass [16, 20] | Plant response rating, Crabgrass [16, 22]
7: Plant response rating, Wild oats [2, 20] | Plant response rating, Velvetleaf [3, 22] | Bedstraw plant response rating (0 to 10 scale) ([11]; Preemergence, Rate 250 g/ha) | Plant response rating, Giant foxtail [13, 22] | Plant response rating, Morningglory [14, 19] | Plant response rating, Blackgrass [15, 19] | Plant response rating, Blackgrass [15, 20]
